Experiments:
[1] = system: Puccinia recondita f. sp. tritici; test: Example B15: Puccinia recondita f. sp. tritici / wheat / leaf disc preventative (brown rust); format: in vivo; details: 200 ppm, compared to untreated control
Method: Example B15: Puccinia recondita f. Sp. Tritici/Wheat/Leaf Disc Preventative (Brown Rust)
Wheat leaf segments cv. Kanzler are placed on agar in multiwell plates (24-well format) and sprayed with the formulated test compound diluted in water. The leaf disks are inoculated with a spore suspension of the fungus 1 day after application. The inoculated leaf segments are incubated at 19° C. and 75% rh under a light regime of 12 h light/12 h darkness in a climate cabinet and the activity of a compound is assessed as percent disease control compared to untreated when an appropriate level of disease damage appears in untreated check leaf segments (7-9 days after application).

[2] = system: Glomerella lagenarium (Colletotrichum lagenarium); test: Example B5: Glomerella lagenarium (Colletotrichum lagenarium) / liquid culture (anthracnose); format: cell-based; details: Colletotrichum orbiculare, compared to untreated control
Method: Example B5: Glomerella Lagenarium (Colletotrichum Lagenarium)/Liquid Culture (Anthracnose)
(§1) Conidia of the fungus from cryogenic storage are directly mixed into nutrient broth (PDB potato dextrose broth). After placing a (DMSO) solution of test compound into a microtiter plate (96-well format), the nutrient broth containing the fungal spores is added. The test plates are incubated at 24° C. and the inhibition of growth is measured photometrically 3-4 days after application.

[3] = system: Monographella nivalis (Microdochium nivale); test: Example B12: Monographella nivalis (Microdochium nivale) / liquid culture (foot rot cereals); format: cell-based; details: compared to untreated control
Method: Example B12: Monographella Nivalis (Microdochium Nivale)/Liquid Culture (Foot Rot Cereals)
as §1, with “determined” for “measured”, “4-5” for “3-4”

[4] = system: Botryotinia fuckeliana (Botrytis cinerea); test: Example B2: Botryotinia fuckeliana (Botrytis cinerea) / liquid culture (gray mould); format: cell-based; details: compared to untreated control
Method: Example B2: Botryotinia fuckeliana (Botrytis cinerea)/Liquid Culture (Gray Mould)
as §1, with “(Vogels” for “(PDB potato dextrose”, “determined” for “measured”

[5] = system: Blumeria graminis f. sp. tritici (Erysiphe graminis f. sp. tritici); test: Example B7: Blumeria graminis f. sp. tritici / wheat / leaf disc preventative (powdery mildew on wheat); format: in vivo; details: foliar, compared to untreated control
Method: Example B7: Blumeria Graminis f. Sp. Tritici (Erysiphe graminis f. Sp. Tritici)/Wheat/Leaf Disc Preventative (Powdery Mildew on Wheat)
Wheat leaf segments cv. Kanzler are placed on agar in a multiwell plate (24-well format) and sprayed with the formulated test compound diluted in water. The leaf disks are inoculated by shaking powdery mildew infected plants above the test plates 1 day after application. The inoculated leaf disks are incubated at 20° C. and 60% rh under a light regime of 24 h darkness followed by 12 h light/12 h darkness in a climate chamber and the activity of a compound is assessed as percent disease control compared to untreated when an appropriate level of disease damage appears on untreated check leaf segments (6-8 days after application).

[6] = system: Mycosphaerella graminicola (Septoria tritici); test: Example B19: Mycosphaerella graminicola (Septoria tritici) / liquid culture (Septoria blotch); format: cell-based; details: Zymoseptoria tritici, compared to untreated control
Method: Example B19: Mycosphaerella graminicola (Septoria tritici)/Liquid Culture (Septoria Blotch)
as §1, with “determined” for “measured”, “4-5” for “3-4”

Fusarium culmorum = test: microbe, parasite or virus in culture; format: cell-based; details: read-out: control of Fusarium culmorum
[7] = system: Mycosphaerella arachidis (Cercospora arachidicola); test: Example B13: Mycosphaerella arachidis (Cercospora arachidicola) / liquid culture (early leaf spot); format: cell-based; details: compared to untreated control
Method: Example B13: Mycosphaerella arachidis (Cercospora arachidicola)/Liquid Culture (Early Leaf Spot)
as §1, with “determined” for “measured”, “4-5” for “3-4”

Pyrenophora teres = test: Example B17: Pyrenophora teres / barley / leaf disc preventative (net blotch); format: in vivo; details: foliar, compared to untreated control
Method: Example B17: Pyrenophora teres/Barley/Leaf Disc Preventative (Net Blotch)
Barley leaf segments cv. Hasso are placed on agar in a multiwell plate (24-well format) and sprayed with the formulated test compound diluted in water. The leaf segments are inoculated with a spore suspension of the fungus 2 days after application. The inoculated leaf segments are incubated at 20° C. and 65% rh under a light regime of 12 h light/12 h darkness in a climate cabinet and the activity of a compound is assessed as disease control compared to untreated when an appropriate level of disease damage appears in untreated check leaf segments (5-7 days after application).

## Cn1cc(C(C)(CNC(=O)c2cc(-c3ccc(F)cc3F)on2)c2cccc(Cl)n2)cn1 (centres unmarked) [X.01, N-[2-(6-chloro-2-pyridyl)-2-(1-methylpyrazol-4-yl)propyl]-5-(2,4-difluorophenyl)isoxazole-3-carboxamide]
[1]
  control of Puccinia recondita f. sp. tritici: at least 80%

## Cn1cc(C(C)(CNC(=O)c2cc(-c3ncc(F)cc3F)on2)c2cccc(Cl)n2)cn1 (centres unmarked) [X.11, N-[2-(6-chloro-2-pyridyl)-2-(1-methylpyrazol-4-yl)propyl]-5-(3,5-difluoro-2-pyridyl)isoxazole-3-carboxamide]
[2]
  inhibition of growth at 20 ppm: ≥ 80%
[3]
  inhibition of growth at 20 ppm: ≥ 80%
[4]
  inhibition of growth at 20 ppm: ≥ 80%
[5]
  pest or weed control at 200 ppm: ≥ 80%
[6]
  inhibition of growth at 20 ppm: ≥ 80%
Fusarium culmorum
  inhibition of growth at 20 ppm: ≥ 80%
[7]
  inhibition of growth at 20 ppm: ≥ 80%

## Cn1cc(C(C)(CNC(=O)c2nnc(-c3ncc(F)cc3F)s2)c2cccc(C#N)n2)cn1 (centres unmarked) [X.14, N-[2-(6-cyano-2-pyridyl)-2-(1-methylpyrazol-4-yl)propyl]-5-(3,5-difluoro-2-pyridyl)-1,3,4-thiadiazole-2-carboxamide]
Pyrenophora teres
  pest or weed control at 200 ppm: ≥ 80%
[2]
  inhibition of growth at 20 ppm: ≥ 80%
[4]
  inhibition of growth at 20 ppm: ≥ 80%
[5]
  pest or weed control at 200 ppm: ≥ 80%
[6]
  inhibition of growth at 20 ppm: ≥ 80%

## Cn1cc(C(C)(CNC(=O)c2nnc(-c3ncc(F)cc3F)s2)c2cccc(Cl)n2)cn1 (centres unmarked) [X.15, N-[2-(6-chloro-2-pyridyl)-2-(1-methylpyrazol-4-yl)propyl]-5-(3,5-difluoro-2-pyridyl)-1,3,4-thiadiazole-2-carboxamide]
Pyrenophora teres
  pest or weed control at 200 ppm: ≥ 80%
[2]
  inhibition of growth at 20 ppm: ≥ 80%
[3]
  inhibition of growth at 20 ppm: ≥ 80%
[4]
  inhibition of growth at 20 ppm: ≥ 80%
[5]
  pest or weed control at 200 ppm: ≥ 80%
[6]
  inhibition of growth at 20 ppm: ≥ 80%
Fusarium culmorum
  inhibition of growth at 20 ppm: ≥ 80%
[7]
  inhibition of growth at 20 ppm: ≥ 80%

## Cn1cc(C(C)(CNC(=O)c2nnc(-c3ccc(F)nc3F)s2)c2cccc(Cl)n2)cn1 (centres unmarked) [X.16, N-[2-(6-chloro-2-pyridyl)-2-(1-methylpyrazol-4-yl)propyl]-5-(2,6-difluoro-3-pyridyl)-1,3,4-thiadiazole-2-carboxamide]
[2]
  inhibition of growth at 20 ppm: ≥ 80%
[3]
  inhibition of growth at 20 ppm: ≥ 80%
[4]
  inhibition of growth at 20 ppm: ≥ 80%
[6]
  inhibition of growth at 20 ppm: ≥ 80%
[7]
  inhibition of growth at 20 ppm: ≥ 80%

Source: patent US20260223852A1, “FUNGICIDAL COMPOSITIONS” (SYNGENTA CROP PROTECTION AG, priority 2023, published 2026)
